Source: the kinase profiling compilation of Christmann-Franck et al. (2016)
One block for each compound: values may come before it.

Key:
Assay in all cases: radiometric filter-binding kinase assay
[1] = molecular target: PHKG1 (human) (UniProt Q16816)
[2] = molecular target: MAP2K1 (human) (UniProt Q02750)
[3] = molecular target: SRC (human) (UniProt P12931)
[4] = molecular target: MARK3 (human) (UniProt P27448)
[5] = test system: LCK (mouse); conditions: accession and sequence are those of the human protein
[6] = molecular target: NTRK1 (human) (UniProt P04629)
[7] = molecular target: MAPK13 (human) (UniProt O15264)
[8] = molecular target: MKNK1 (human) (UniProt Q9BUB5)
[9] = molecular target: PRKCZ (human) (UniProt Q05513)
[10] = molecular target: IGF1R (human) (UniProt P08069)
[11] = test system: PRKAA1 or PRKAA2 (rat); conditions: accession and sequence are those of the human protein
[12] = molecular target: MARK4 (human) (UniProt Q96L34)
[13] = molecular target: JAK2 JH1 JH2 (human) (UniProt O60674)
[14] = molecular target: DYRK1A (human) (UniProt Q13627)
[15] = molecular target: CSNK2A1 (human) (UniProt P68400)
[16] = molecular target: CaMK1 (human) (UniProt Q14012)
[17] = molecular target: PAK4 (human) (UniProt O96013)
[18] = test system: AKT2 (human), P31751 [S474D]
[19] = molecular target: NUAK1 (human) (UniProt O60285)
[20] = molecular target: INSR (human) (UniProt P06213)
[21] = molecular target: AURKB (human) (UniProt Q96GD4)
[22] = molecular target: EPHB3 (human) (UniProt P54753)
[23] = molecular target: MAP3K9 (human) (UniProt P80192)
[24] = molecular target: RIPK2 (human) (UniProt O43353)
[25] = molecular target: CAMKK2 (human) (UniProt Q96RR4)
[26] = molecular target: MAPK10 (human) (UniProt P53779)
[27] = molecular target: PIM2 (human) (UniProt Q9P1W9)
[28] = molecular target: SYK (human) (UniProt P43405)
[29] = molecular target: INSRR (human) (UniProt P14616)
[30] = molecular target: CHEK1 (human) (UniProt O14757)
[31] = molecular target: YES1 (human) (UniProt P07947)
[32] = molecular target: CDK2 CCNA2 (human) (UniProt P20248+P24941)
[33] = molecular target: MST4 (human) (UniProt Q9P289)
[34] = molecular target: MINK1 (human) (UniProt Q8N4C8)
[35] = molecular target: MAP3K11 (human) (UniProt Q16584)
[36] = molecular target: PRKACA (human) (UniProt P17612)

CaMK1 (human), sequence (Q14012 whole entry, looked up): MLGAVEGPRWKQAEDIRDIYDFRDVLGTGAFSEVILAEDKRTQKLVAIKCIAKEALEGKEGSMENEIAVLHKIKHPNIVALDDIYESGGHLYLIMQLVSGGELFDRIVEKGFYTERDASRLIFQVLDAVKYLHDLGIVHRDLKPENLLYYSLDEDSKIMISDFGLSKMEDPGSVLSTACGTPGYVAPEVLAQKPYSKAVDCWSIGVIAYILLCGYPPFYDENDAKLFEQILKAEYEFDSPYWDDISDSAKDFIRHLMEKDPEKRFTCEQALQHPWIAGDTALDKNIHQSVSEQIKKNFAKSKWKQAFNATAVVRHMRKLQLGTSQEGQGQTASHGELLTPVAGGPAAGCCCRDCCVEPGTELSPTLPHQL
MST4 (human), sequence (Q9P289 whole entry, looked up): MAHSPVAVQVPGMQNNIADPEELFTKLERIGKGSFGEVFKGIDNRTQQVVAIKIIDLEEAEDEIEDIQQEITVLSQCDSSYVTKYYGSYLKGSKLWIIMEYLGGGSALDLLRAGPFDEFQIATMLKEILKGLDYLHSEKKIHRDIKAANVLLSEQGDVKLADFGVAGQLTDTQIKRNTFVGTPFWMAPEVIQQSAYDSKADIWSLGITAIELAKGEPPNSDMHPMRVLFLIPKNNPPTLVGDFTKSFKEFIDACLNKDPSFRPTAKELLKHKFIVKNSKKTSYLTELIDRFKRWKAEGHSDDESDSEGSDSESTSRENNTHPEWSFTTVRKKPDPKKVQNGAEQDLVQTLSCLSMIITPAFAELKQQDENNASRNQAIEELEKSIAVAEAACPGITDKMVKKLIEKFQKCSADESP
RIPK2 (human), sequence (O43353 whole entry, looked up): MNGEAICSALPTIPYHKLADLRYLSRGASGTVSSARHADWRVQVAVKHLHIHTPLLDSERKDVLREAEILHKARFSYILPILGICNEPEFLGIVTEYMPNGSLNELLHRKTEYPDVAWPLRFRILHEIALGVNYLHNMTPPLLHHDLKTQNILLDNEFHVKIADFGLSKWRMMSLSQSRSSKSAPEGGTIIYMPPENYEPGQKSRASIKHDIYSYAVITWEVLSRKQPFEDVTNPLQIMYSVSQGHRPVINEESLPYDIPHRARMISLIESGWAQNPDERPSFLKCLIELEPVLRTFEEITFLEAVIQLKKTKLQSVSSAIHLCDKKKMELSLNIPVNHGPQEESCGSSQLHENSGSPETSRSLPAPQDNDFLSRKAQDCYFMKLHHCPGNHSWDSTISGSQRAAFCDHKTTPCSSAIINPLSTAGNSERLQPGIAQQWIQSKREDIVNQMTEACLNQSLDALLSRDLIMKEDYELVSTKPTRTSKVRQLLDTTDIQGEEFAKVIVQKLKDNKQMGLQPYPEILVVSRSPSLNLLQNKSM
AURKB (human), sequence (Q96GD4 whole entry, looked up): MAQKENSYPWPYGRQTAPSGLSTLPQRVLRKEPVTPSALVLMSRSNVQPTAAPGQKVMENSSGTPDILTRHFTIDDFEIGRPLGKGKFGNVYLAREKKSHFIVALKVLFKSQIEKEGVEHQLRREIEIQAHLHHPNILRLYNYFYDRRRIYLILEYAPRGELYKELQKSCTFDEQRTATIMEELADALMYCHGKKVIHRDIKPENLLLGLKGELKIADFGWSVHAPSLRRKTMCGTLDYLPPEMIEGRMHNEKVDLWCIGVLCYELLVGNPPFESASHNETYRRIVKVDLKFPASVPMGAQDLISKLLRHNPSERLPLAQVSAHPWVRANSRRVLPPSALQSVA
PAK4 (human), sequence (O96013 whole entry, looked up): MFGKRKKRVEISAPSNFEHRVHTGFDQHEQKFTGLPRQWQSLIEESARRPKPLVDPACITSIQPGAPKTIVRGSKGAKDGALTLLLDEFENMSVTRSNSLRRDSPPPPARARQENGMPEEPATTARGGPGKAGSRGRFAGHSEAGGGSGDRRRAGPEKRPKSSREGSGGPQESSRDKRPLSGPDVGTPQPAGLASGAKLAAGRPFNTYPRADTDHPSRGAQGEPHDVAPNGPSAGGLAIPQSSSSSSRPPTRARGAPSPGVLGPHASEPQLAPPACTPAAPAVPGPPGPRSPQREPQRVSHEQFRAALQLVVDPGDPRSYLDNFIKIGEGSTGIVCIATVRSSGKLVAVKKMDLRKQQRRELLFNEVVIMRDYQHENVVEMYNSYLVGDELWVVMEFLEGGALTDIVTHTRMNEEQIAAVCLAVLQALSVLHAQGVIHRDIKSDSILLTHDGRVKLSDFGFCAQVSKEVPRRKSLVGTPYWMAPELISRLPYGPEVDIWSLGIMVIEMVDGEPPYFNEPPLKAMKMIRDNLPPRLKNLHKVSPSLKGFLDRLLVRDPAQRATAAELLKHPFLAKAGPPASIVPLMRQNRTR
CHEK1 (human), sequence (O14757 whole entry, looked up): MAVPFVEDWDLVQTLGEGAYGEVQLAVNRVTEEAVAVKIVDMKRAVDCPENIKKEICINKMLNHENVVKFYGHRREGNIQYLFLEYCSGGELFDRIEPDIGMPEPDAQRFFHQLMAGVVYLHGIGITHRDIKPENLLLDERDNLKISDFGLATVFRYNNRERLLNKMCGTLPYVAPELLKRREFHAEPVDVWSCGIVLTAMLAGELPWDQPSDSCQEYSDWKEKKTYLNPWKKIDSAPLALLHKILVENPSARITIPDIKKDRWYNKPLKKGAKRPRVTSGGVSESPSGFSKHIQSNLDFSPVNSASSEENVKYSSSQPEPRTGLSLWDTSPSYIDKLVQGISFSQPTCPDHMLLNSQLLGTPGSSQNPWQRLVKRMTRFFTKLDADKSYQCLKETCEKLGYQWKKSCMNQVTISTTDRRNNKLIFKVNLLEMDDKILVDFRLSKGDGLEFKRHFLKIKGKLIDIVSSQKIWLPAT
MAP3K11 (human), sequence (Q16584 whole entry, looked up): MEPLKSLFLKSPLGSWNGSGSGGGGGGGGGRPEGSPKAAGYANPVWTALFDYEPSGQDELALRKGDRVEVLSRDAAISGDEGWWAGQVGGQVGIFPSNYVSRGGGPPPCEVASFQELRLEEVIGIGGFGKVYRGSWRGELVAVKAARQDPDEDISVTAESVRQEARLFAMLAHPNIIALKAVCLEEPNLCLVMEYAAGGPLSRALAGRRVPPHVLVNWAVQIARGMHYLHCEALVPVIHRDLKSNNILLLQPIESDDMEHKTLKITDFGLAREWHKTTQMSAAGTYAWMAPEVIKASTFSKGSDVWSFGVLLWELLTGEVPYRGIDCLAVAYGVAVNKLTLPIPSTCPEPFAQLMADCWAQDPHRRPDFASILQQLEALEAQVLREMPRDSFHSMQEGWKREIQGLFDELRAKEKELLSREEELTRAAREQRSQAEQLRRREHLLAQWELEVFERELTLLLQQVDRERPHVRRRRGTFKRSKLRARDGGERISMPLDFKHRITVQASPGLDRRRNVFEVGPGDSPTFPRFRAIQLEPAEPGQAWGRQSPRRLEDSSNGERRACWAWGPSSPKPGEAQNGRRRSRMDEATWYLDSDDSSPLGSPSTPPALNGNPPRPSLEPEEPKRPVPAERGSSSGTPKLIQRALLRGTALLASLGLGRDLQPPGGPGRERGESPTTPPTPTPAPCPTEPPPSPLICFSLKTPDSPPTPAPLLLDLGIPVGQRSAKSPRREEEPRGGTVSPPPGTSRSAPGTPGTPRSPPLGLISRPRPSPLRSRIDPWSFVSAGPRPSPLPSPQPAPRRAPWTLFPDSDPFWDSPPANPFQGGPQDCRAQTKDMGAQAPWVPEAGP
NUAK1 (human), sequence (O60285 whole entry, looked up): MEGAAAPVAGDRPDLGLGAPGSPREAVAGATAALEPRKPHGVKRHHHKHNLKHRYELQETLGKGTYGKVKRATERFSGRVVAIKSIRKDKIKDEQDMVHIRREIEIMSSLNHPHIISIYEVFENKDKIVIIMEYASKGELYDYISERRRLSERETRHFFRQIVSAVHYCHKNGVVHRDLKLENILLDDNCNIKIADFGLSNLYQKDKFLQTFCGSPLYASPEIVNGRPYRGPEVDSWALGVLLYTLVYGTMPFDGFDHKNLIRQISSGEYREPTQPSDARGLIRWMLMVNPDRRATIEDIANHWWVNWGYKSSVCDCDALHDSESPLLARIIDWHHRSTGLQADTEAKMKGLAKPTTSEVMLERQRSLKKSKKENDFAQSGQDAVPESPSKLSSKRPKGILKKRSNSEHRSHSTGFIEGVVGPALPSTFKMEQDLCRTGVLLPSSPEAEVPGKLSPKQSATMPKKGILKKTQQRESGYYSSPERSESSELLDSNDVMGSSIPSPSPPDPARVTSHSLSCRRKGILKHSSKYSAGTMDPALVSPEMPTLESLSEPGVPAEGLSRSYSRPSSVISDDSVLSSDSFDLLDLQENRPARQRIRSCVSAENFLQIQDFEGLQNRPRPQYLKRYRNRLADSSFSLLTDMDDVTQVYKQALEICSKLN
MARK3 (human), sequence (P27448 whole entry, looked up): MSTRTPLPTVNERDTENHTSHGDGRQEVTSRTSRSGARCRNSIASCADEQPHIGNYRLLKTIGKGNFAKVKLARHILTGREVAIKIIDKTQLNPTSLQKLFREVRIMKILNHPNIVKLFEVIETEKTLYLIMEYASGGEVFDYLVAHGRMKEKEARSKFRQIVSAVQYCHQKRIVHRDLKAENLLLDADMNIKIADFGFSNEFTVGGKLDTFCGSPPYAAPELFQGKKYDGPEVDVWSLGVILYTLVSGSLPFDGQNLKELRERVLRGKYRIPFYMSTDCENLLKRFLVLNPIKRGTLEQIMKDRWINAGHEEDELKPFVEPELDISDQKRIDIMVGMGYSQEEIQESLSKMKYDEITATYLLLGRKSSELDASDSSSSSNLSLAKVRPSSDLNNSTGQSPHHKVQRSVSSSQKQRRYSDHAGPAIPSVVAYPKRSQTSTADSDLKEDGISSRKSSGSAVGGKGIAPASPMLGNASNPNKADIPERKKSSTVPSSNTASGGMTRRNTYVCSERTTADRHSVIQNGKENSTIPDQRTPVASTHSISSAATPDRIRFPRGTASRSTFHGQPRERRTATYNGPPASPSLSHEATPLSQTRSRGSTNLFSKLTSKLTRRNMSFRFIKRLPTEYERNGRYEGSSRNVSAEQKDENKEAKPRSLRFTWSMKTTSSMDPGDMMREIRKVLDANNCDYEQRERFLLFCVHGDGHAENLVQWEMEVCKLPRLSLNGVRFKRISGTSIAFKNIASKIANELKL

- residual activity ([1]; compound 0.1 µM): 110%
- residual activity ([1]; compound 1.0 µM): 91%
- residual activity ([1]; compound 10.0 µM): 86%
- residual activity ([2]; compound 0.1 µM): 101%
- residual activity ([2]; compound 1.0 µM): 97%
- residual activity ([2]; compound 10.0 µM): 69%
- residual activity ([3]; compound 0.1 µM): 110%
- residual activity ([3]; compound 1.0 µM): 116%
- residual activity ([3]; compound 10.0 µM): 100%
- residual activity ([4]; compound 0.1 µM): 113%
- residual activity ([4]; compound 1.0 µM): 115%
- residual activity ([5]; compound 1.0 µM): 95%
- residual activity ([6]; compound 1.0 µM): 100%
- residual activity ([6]; compound 10.0 µM): 83%
- residual activity ([7]; compound 0.1 µM): 108%
- residual activity ([7]; compound 1.0 µM): 103%
- residual activity ([7]; compound 10.0 µM): 94%
- residual activity ([8]; compound 0.1 µM): 105%
- residual activity ([8]; compound 1.0 µM): 103%
- residual activity ([8]; compound 10.0 µM): 83%
- residual activity ([9]; compound 0.1 µM): 115%
- residual activity ([9]; compound 1.0 µM): 112%
- residual activity ([9]; compound 10.0 µM): 106%
- residual activity ([10]; compound 0.1 µM): 101%
- residual activity ([10]; compound 1.0 µM): 108%
- residual activity ([10]; compound 10.0 µM): 114%
- residual activity ([11]; compound 0.1 µM): 93%
- residual activity ([11]; compound 1.0 µM): 38%
- residual activity ([11]; compound 10.0 µM): 9%
- residual activity ([12]; compound 0.1 µM): 107%
- residual activity ([12]; compound 1.0 µM): 87%
- residual activity ([12]; compound 10.0 µM): 49%
- residual activity ([13]; compound 0.1 µM): 101%
- residual activity ([13]; compound 1.0 µM): 102%
- residual activity ([13]; compound 10.0 µM): 79%
- residual activity ([14]; compound 0.1 µM): 80%
- residual activity ([14]; compound 1.0 µM): 31%
- residual activity ([14]; compound 10.0 µM): 8%
- residual activity ([15]; compound 0.1 µM): 100%
- residual activity ([15]; compound 1.0 µM): 97%
- residual activity ([15]; compound 10.0 µM): 93%
- residual activity ([16]; compound 0.1 µM): 96%
- residual activity ([16]; compound 1.0 µM): 97%
- residual activity ([16]; compound 10.0 µM): 68%
- residual activity ([17]; compound 0.1 µM): 103%
- residual activity ([17]; compound 1.0 µM): 88%
- residual activity ([17]; compound 10.0 µM): 82%
- residual activity ([18]; compound 1.0 µM): 90%
- residual activity ([18]; compound 10.0 µM): 69%
- residual activity ([19]; compound 1.0 µM): 102%
- residual activity ([19]; compound 10.0 µM): 58%
- residual activity ([20]; compound 0.1 µM): 123%
- residual activity ([21]; compound 0.1 µM): 109%
- residual activity ([21]; compound 1.0 µM): 99%
- residual activity ([21]; compound 10.0 µM): 64%
- residual activity ([22]; compound 0.1 µM): 98%
- residual activity ([22]; compound 1.0 µM): 88%
- residual activity ([22]; compound 10.0 µM): 85%
- residual activity ([23]; compound 0.1 µM): 99%
- residual activity ([23]; compound 1.0 µM): 95%
- residual activity ([24]; compound 0.1 µM): 93%
- residual activity ([24]; compound 10.0 µM): 39%
- residual activity ([25]; compound 0.1 µM): 107%
- residual activity ([25]; compound 10.0 µM): 28%
- residual activity ([26]; compound 0.1 µM): 120%
- residual activity ([26]; compound 1.0 µM): 104%
- residual activity ([26]; compound 10.0 µM): 102%
- residual activity ([27]; compound 0.1 µM): 103%
- residual activity ([27]; compound 1.0 µM): 103%
- residual activity ([27]; compound 10.0 µM): 66%
- residual activity ([28]; compound 0.1 µM): 94%
- residual activity ([28]; compound 10.0 µM): 82%
- residual activity ([29]; compound 0.1 µM): 99%
- residual activity ([29]; compound 1.0 µM): 79%
- residual activity ([29]; compound 10.0 µM): 53%
- residual activity ([30]; compound 1.0 µM): 109%
- residual activity ([30]; compound 10.0 µM): 112%
- residual activity ([31]; compound 0.1 µM): 112%
- residual activity ([31]; compound 1.0 µM): 89%
- residual activity ([31]; compound 10.0 µM): 55%
- residual activity ([32]; compound 0.1 µM): 111%
- residual activity ([32]; compound 1.0 µM): 93%
- residual activity ([32]; compound 10.0 µM): 57%
- residual activity ([33]; compound 1.0 µM): 101%
- residual activity ([33]; compound 10.0 µM): 91%
- residual activity ([34]; compound 1.0 µM): 97%
- residual activity ([34]; compound 10.0 µM): 40%
- residual activity ([35]; compound 0.1 µM): 114%
- residual activity ([35]; compound 1.0 µM): 102%
- residual activity ([35]; compound 10.0 µM): 73%
- residual activity ([36]; compound 0.1 µM): 109%
- residual activity ([36]; compound 1.0 µM): 119%
- residual activity ([36]; compound 10.0 µM): 108%
SMILES: Cc1ccc(-c2ccc3c(ccc4sc5c(c43)NC[C@@H](C)NC5=O)n2)cn1

- residual activity ([1]; compound 1.0 µM): 100%
- residual activity ([1]; compound 5.0 µM): 103%
- residual activity ([1]; compound 10.0 µM): 108%
- residual activity ([2]; compound 1.0 µM): 85%
- residual activity ([2]; compound 5.0 µM): 18%
- residual activity ([2]; compound 10.0 µM): 96%
- residual activity ([3]; compound 1.0 µM): 42%
- residual activity ([3]; compound 5.0 µM): 17%
- residual activity ([3]; compound 10.0 µM): 89%
- residual activity ([4]; compound 1.0 µM): 81%
- residual activity ([4]; compound 5.0 µM): 63%
- residual activity ([4]; compound 10.0 µM): 69%
- residual activity ([5]; compound 1.0 µM): 99%
- residual activity ([5]; compound 5.0 µM): 99%
- residual activity ([5]; compound 10.0 µM): 90%
- residual activity ([6]; compound 1.0 µM): 63%
- residual activity ([6]; compound 5.0 µM): 19%
- residual activity ([7]; compound 1.0 µM): 102%
- residual activity ([7]; compound 5.0 µM): 102%
- residual activity ([7]; compound 10.0 µM): 104%
- residual activity ([8]; compound 1.0 µM): 88%
- residual activity ([8]; compound 5.0 µM): 76%
- residual activity ([8]; compound 10.0 µM): 100%
- residual activity ([9]; compound 1.0 µM): 44%
- residual activity ([9]; compound 5.0 µM): 11%
- residual activity ([9]; compound 10.0 µM): 39%
- residual activity ([10]; compound 1.0 µM): 87%
- residual activity ([10]; compound 5.0 µM): 94%
- residual activity ([10]; compound 10.0 µM): 84%
- residual activity ([11]; compound 1.0 µM): 55%
- residual activity ([11]; compound 5.0 µM): 27%
- residual activity ([11]; compound 10.0 µM): 90%
- residual activity ([12]; compound 1.0 µM): 47%
- residual activity ([12]; compound 5.0 µM): 41%
- residual activity ([13]; compound 1.0 µM): 72%
- residual activity ([13]; compound 5.0 µM): 34%
- residual activity ([14]; compound 1.0 µM): 47%
- residual activity ([14]; compound 5.0 µM): 19%
- residual activity ([14]; compound 10.0 µM): 83%
- residual activity ([15]; compound 1.0 µM): 104%
- residual activity ([15]; compound 5.0 µM): 97%
- residual activity ([15]; compound 10.0 µM): 127%
- residual activity ([16]; compound 1.0 µM): 6%
- residual activity ([16]; compound 5.0 µM): 3%
- residual activity ([16]; compound 10.0 µM): 7%
- residual activity ([17]; compound 1.0 µM): 119%
- residual activity ([17]; compound 5.0 µM): 45%
- residual activity ([17]; compound 10.0 µM): 98%
- residual activity ([18]; compound 1.0 µM): 1%
- residual activity ([18]; compound 5.0 µM): 0%
- residual activity ([18]; compound 10.0 µM): 0%
- residual activity ([19]; compound 1.0 µM): 11%
- residual activity ([19]; compound 5.0 µM): 6%
- residual activity ([20]; compound 1.0 µM): 110%
- residual activity ([20]; compound 5.0 µM): 93%
- residual activity ([20]; compound 10.0 µM): 113%
- residual activity ([21]; compound 1.0 µM): 2%
- residual activity ([21]; compound 5.0 µM): 2%
- residual activity ([21]; compound 10.0 µM): 5%
- residual activity ([22]; compound 1.0 µM): 86%
- residual activity ([22]; compound 5.0 µM): 69%
- residual activity ([22]; compound 10.0 µM): 26%
- residual activity ([23]; compound 1.0 µM): 16%
- residual activity ([23]; compound 5.0 µM): 4%
- residual activity ([24]; compound 1.0 µM): 117%
- residual activity ([24]; compound 5.0 µM): 114%
- residual activity ([25]; compound 1.0 µM): 98%
- residual activity ([25]; compound 5.0 µM): 49%
- residual activity ([25]; compound 10.0 µM): 90%
- residual activity ([26]; compound 1.0 µM): 106%
- residual activity ([26]; compound 5.0 µM): 77%
- residual activity ([27]; compound 1.0 µM): 65%
- residual activity ([27]; compound 5.0 µM): 21%
- residual activity ([27]; compound 10.0 µM): 81%
- residual activity ([28]; compound 1.0 µM): 77%
- residual activity ([28]; compound 5.0 µM): 12%
- residual activity ([28]; compound 10.0 µM): 92%
- residual activity ([29]; compound 1.0 µM): 84%
- residual activity ([29]; compound 5.0 µM): 47%
- residual activity ([29]; compound 10.0 µM): 83%
- residual activity ([30]; compound 1.0 µM): 89%
- residual activity ([30]; compound 5.0 µM): 88%
- residual activity ([30]; compound 10.0 µM): 88%
- residual activity ([31]; compound 1.0 µM): 59%
- residual activity ([31]; compound 5.0 µM): 34%
- residual activity ([31]; compound 10.0 µM): 60%
- residual activity ([32]; compound 1.0 µM): 101%
- residual activity ([32]; compound 5.0 µM): 106%
- residual activity ([32]; compound 10.0 µM): 88%
- residual activity ([33]; compound 1.0 µM): 6%
- residual activity ([33]; compound 5.0 µM): 8%
- residual activity ([33]; compound 10.0 µM): 53%
- residual activity ([34]; compound 1.0 µM): 3%
- residual activity ([34]; compound 5.0 µM): 1%
- residual activity ([35]; compound 1.0 µM): 9%
- residual activity ([35]; compound 5.0 µM): 2%
- residual activity ([36]; compound 1.0 µM): 101%
- residual activity ([36]; compound 5.0 µM): 92%
- residual activity ([36]; compound 10.0 µM): 100%
SMILES: Oc1ccc2ccccc2c1SSc1c(O)ccc2ccccc12
